ChEMBL document CHEMBL1141670, “QSAR analysis of 1,3-diaryl-4,5,6,7-tetrahydro-2H-isoindole derivatives as selective COX-2 inhibitors” (Eur J Med Chem, 2008)

Biological target: T1, Prostaglandin G/H synthase 2 (Mus musculus, UniProt Q05769)
T1 sequence (Q05769 whole entry): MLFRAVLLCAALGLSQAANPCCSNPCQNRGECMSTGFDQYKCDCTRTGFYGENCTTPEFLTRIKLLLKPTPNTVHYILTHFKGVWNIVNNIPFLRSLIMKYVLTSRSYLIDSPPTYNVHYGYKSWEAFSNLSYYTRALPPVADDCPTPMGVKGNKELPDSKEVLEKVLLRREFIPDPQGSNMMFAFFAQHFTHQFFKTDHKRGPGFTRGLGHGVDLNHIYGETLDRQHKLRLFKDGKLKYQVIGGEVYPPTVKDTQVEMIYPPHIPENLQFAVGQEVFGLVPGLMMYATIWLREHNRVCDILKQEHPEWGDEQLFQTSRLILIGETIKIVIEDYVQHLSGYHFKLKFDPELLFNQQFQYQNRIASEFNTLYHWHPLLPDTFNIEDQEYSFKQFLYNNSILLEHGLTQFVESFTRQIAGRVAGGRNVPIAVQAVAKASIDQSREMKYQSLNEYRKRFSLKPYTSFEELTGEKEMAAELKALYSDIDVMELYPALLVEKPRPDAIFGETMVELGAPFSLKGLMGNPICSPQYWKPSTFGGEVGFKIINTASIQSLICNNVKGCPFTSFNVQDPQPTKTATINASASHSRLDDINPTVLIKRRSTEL
Test: Inhibition of mouse macrophage COX2

IC50	Structure (SMILES)
0.0167 µM	Cc1ccc(-c2[nH]c(-c3ccc(C)cc3)c3c2CCCC3)cc1
10 µM	CS(=O)(=O)c1ccc(-c2[nH]c(-c3ccc(S(C)(=O)=O)cc3)c3c2C2CCC3C2)cc1
1 µM	CC1=C(C)Cc2c(c(-c3ccccc3)n(C)c2-c2ccccc2)C1
